Reference: US4668681A, “2-(4-Phenylpiperazinylethyl) anilines” (Societe Cortial, S.A., priority 1981, dated 1987)
In brackets after ≈: the same amount, converted by molar mass.

What was measured:
[1] = Lethality (LD50) by oral administration in the Swiss mouse; details: in vivo, 20% solution in Tween, 14 days observation
Experimental: The lethality produced by the compounds of this invention was measured in the Swiss mouse free from specific pathogenic organisms.

male Sprague-Dawley rats = experiment: Antiallergic activity: passive cutaneous anaphylaxis test; format: in vivo; details: oral, suspension with Tween 80, ten minutes before the releasing injection, rat; read-out: ED50 (percentage decrease of the amount of Evans blue diffused in the papule)
Experimental: The antiallergic activity was determined by the passive cutaneous anaphylaxis test in the following manner. A quantity of 0.1 ml of serum containing IgE was administered intradermally to male Sprague-Dawley rats. The serum was prepared by sensitizing Sprague-Dawley rats by an intraperitoneal injection of ovalbumin and a suspension of Bordetella pertussis followed after 20 days by a second injection of ovalbumin. 24 Hours after administration of the serum, 0.5 ml of a solution containing 8.25 mg/kg of ovalbumin and 26.4 mg/kg of Evans blue in a pH 7.05 buffer was administered intravenously. After 30 minutes the animals were sacrificed. Each papule was dissected, weighed and incubated for four days at 37° C. in 15 g of formamide. The amount of Evans blue contained in each papule was determined by measuring the optical density of the mixture. The product to be tested was administered orally in a homogenous suspension in the presence of Tween 80, ten minutes before the releasing injection. Its activity is evaluated by the percentage decrease of the amount of Evans blue which has diffused in the papule.

[2] = tested on: isolated ileum of the guinea pig; experiment: Antihistaminic activity in vitro: inhibition of histamine-induced contractions of isolated ileum; format: cell-based; details: Cavia porcellus, histamine 1×10^-8 g/l, bathing method, read-out: IC50 (concentration producing 50% inhibition of contractions induced by histamine)
Experimental: The antihistaminic activity was measured in vitro by measuring the concentration which produced 50% inhibition of the contractions induced by histamine (1×10^-8 g/l) in the isolated ileum of the guinea pig (IC50).

Nc1ccccc1CCN1CCN(c2ccccc2)CC1 [Example 1, 2-(4-phenylpiperazinylethyl)aniline]
LD50 at 336 h [1]: 1180 mg/kg | ED50 (male Sprague-Dawley rats): 5.11 mg/kg | IC50 [2]: 6.3 µg/mL (≈ 22.4 µM)
